Test results from PubChem BioAssay (NCI).
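All cell lines were grown in 96-well plates and treated with compound for 48 hours. TGI denotes the concentration required for complete inhibition of growth.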

Experiments:
Test in all cases: NCI-60 cell line screen, 48 h
OVCAR-4 ovarian = system: OVCAR-4 ovarian
SW-620 colon = system: SW-620 colon
K-562 leukemia = system: K-562 leukemia
SK-MEL-5 melanoma = system: SK-MEL-5 melanoma
SNB-19 CNS = system: SNB-19 CNS
COLO 205 colon = system: COLO 205 colon
UO-31 renal = system: UO-31 renal
SF-539 CNS = system: SF-539 CNS
BT-549 breast = system: BT-549 breast
OVCAR-8 ovarian = system: OVCAR-8 ovarian
HOP-92 NSCLC = system: HOP-92 NSCLC
SF-295 CNS = system: SF-295 CNS
HT29 colon = system: HT29 colon
SR leukemia = system: SR leukemia

## COc1cc(C2C3=C(COC3=O)Oc3cc4c(cc32)OCO4)ccc1OC(C)=O (configuration not stated)
OVCAR-4 ovarian
  TGI: > 29.8 µM
SW-620 colon
  TGI: > 100 µM
K-562 leukemia
  TGI: > 38.7 µM
SK-MEL-5 melanoma
  TGI: > 100 µM
SNB-19 CNS
  TGI: > 100 µM
COLO 205 colon
  TGI: 0.602 µM
UO-31 renal
  TGI: > 100 µM
SF-539 CNS
  TGI: 0.749 µM
BT-549 breast
  TGI: 12.6 µM
OVCAR-8 ovarian
  TGI: > 56.4 µM

## Fc1ccccc1-c1nn2c(C34CC5CC(CC(C5)C3)C4)nnc2s1
OVCAR-4 ovarian
  TGI: > 100 µM
HOP-92 NSCLC
  TGI: > 100 µM
SF-295 CNS
  TGI: > 100 µM
SW-620 colon
  TGI: > 100 µM
K-562 leukemia
  TGI: > 100 µM
SK-MEL-5 melanoma
  TGI: > 100 µM
SNB-19 CNS
  TGI: > 100 µM
HT29 colon
  TGI: > 100 µM
SR leukemia
  TGI: > 100 µM
COLO 205 colon
  TGI: > 100 µM
UO-31 renal
  TGI: > 100 µM
SF-539 CNS
  TGI: > 100 µM
OVCAR-8 ovarian
  TGI: > 100 µM

## CC(=O)N(CCc1ccccc1)C(C#N)c1ccc(OCCCCCCCCCCOc2ccc(C(C#N)N(CCc3ccccc3)C(C)=O)cc2)cc1 (configuration not stated)
OVCAR-4 ovarian
  TGI: 44.2 µM
HOP-92 NSCLC
  TGI: 43.5 µM
SF-295 CNS
  TGI: 51.6 µM
SW-620 colon
  TGI: > 100 µM
K-562 leukemia
  TGI: > 100 µM
SK-MEL-5 melanoma
  TGI: > 100 µM
SNB-19 CNS
  TGI: 88.1 µM
HT29 colon
  TGI: > 100 µM
COLO 205 colon
  TGI: > 100 µM
UO-31 renal
  TGI: > 100 µM
SF-539 CNS
  TGI: > 100 µM
BT-549 breast
  TGI: 98.6 µM
OVCAR-8 ovarian
  TGI: > 100 µM

## Cc1ccc(Nc2nc(N)nc3c2ncn3C2OC(CO)C(O)C2O)cc1 (configuration not stated)
OVCAR-4 ovarian
  TGI: > 100 µM
HOP-92 NSCLC
  TGI: > 100 µM
SF-295 CNS
  TGI: > 100 µM
SW-620 colon
  TGI: > 100 µM
K-562 leukemia
  TGI: > 100 µM
SK-MEL-5 melanoma
  TGI: > 100 µM
SNB-19 CNS
  TGI: > 100 µM
HT29 colon
  TGI: > 100 µM
COLO 205 colon
  TGI: > 100 µM
UO-31 renal
  TGI: > 100 µM
SF-539 CNS
  TGI: > 100 µM
OVCAR-8 ovarian
  TGI: > 100 µM

## O=C1c2ccccc2-c2ccc(N=Nc3c(O)ccc4ccccc34)cc21
OVCAR-4 ovarian
  TGI: > 100 µM
HOP-92 NSCLC
  TGI: > 100 µM
SF-295 CNS
  TGI: > 100 µM
SW-620 colon
  TGI: > 100 µM
K-562 leukemia
  TGI: > 100 µM
SK-MEL-5 melanoma
  TGI: > 100 µM
SNB-19 CNS
  TGI: > 100 µM
HT29 colon
  TGI: > 100 µM
COLO 205 colon
  TGI: > 100 µM
UO-31 renal
  TGI: > 100 µM
BT-549 breast
  TGI: > 100 µM
OVCAR-8 ovarian
  TGI: > 100 µM

## CC(C)(C)[Si](C)(C)OCC1CCC(n2cnc3c(N)ncnc32)O1 (configuration not stated)
OVCAR-4 ovarian
  TGI: > 100 µM
HOP-92 NSCLC
  TGI: > 100 µM
SF-295 CNS
  TGI: > 100 µM
SW-620 colon
  TGI: > 100 µM
K-562 leukemia
  TGI: > 100 µM
SK-MEL-5 melanoma
  TGI: 34.4 µM
SNB-19 CNS
  TGI: > 100 µM
HT29 colon
  TGI: > 100 µM
COLO 205 colon
  TGI: > 100 µM
UO-31 renal
  TGI: > 100 µM
BT-549 breast
  TGI: 87 µM
OVCAR-8 ovarian
  TGI: > 100 µM

## COC(=O)c1ccc(N=NN(C)COc2ccc([N+](=O)[O-])cc2)cc1
OVCAR-4 ovarian
  TGI: > 100 µM
HOP-92 NSCLC
  TGI: > 100 µM
SF-295 CNS
  TGI: > 100 µM
SW-620 colon
  TGI: > 100 µM
K-562 leukemia
  TGI: > 100 µM
SK-MEL-5 melanoma
  TGI: > 100 µM
SNB-19 CNS
  TGI: > 100 µM
HT29 colon
  TGI: > 100 µM
COLO 205 colon
  TGI: > 100 µM
UO-31 renal
  TGI: > 100 µM
SF-539 CNS
  TGI: > 100 µM
OVCAR-8 ovarian
  TGI: > 100 µM

## CC/C=C/C(=O)CC(O)(C(F)(F)F)C(F)(F)F
OVCAR-4 ovarian
  TGI: > 100 µM
HOP-92 NSCLC
  TGI: 86.3 µM
SF-295 CNS
  TGI: > 100 µM
SW-620 colon
  TGI: > 100 µM
SK-MEL-5 melanoma
  TGI: > 100 µM
SNB-19 CNS
  TGI: > 100 µM
HT29 colon
  TGI: > 100 µM
SR leukemia
  TGI: > 100 µM
COLO 205 colon
  TGI: > 100 µM
UO-31 renal
  TGI: > 100 µM
SF-539 CNS
  TGI: > 100 µM
OVCAR-8 ovarian
  TGI: > 100 µM

## O=C1CCC2CCC1C2 (configuration not stated)
OVCAR-4 ovarian
  TGI: > 100 µM
SF-295 CNS
  TGI: > 100 µM
K-562 leukemia
  TGI: > 100 µM
SK-MEL-5 melanoma
  TGI: > 100 µM
SNB-19 CNS
  TGI: > 100 µM
HT29 colon
  TGI: > 100 µM
COLO 205 colon
  TGI: > 100 µM
UO-31 renal
  TGI: > 100 µM
SF-539 CNS
  TGI: > 100 µM
OVCAR-8 ovarian
  TGI: > 100 µM

## COC(=O)C1[C@@H](C(=O)OC)C12C=Cc1ccccc1C=C2 (some centres not stated)
HOP-92 NSCLC
  TGI: > 100 µM
SF-295 CNS
  TGI: > 100 µM
SW-620 colon
  TGI: > 100 µM
K-562 leukemia
  TGI: > 100 µM
SK-MEL-5 melanoma
  TGI: > 100 µM
SNB-19 CNS
  TGI: > 100 µM
SR leukemia
  TGI: > 100 µM
COLO 205 colon
  TGI: > 100 µM
UO-31 renal
  TGI: > 100 µM
SF-539 CNS
  TGI: > 100 µM
OVCAR-8 ovarian
  TGI: > 100 µM
